System: Solanum nigrum (SOLNI)
Assay: Pre-emergence glasshouse herbicide test
Format: in vivo
Settings: PRE Application, 1000 g/h, after 13 days

SMILES	percentage damage caused to the plant, SOLNI
Cn1nnnc1NC(=O)c1nc2ccccc2n(-c2ccc(Cl)c(Cl)c2)c1=O [Compound 5.035]	5 (5=80-100%)
Cc1cccc(-n2c(=O)c(C(=O)Nc3ncnn3C)nc3ccccc32)n1 [Compound 5.038]	5 (5=80-100%)
CSc1ccc(-n2c(=O)c(C(=O)Nc3nnnn3C)nc3ccccc32)cc1 [Compound 5.020]	5 (5=80-100%)
Cn1nnnc1NC(=O)c1nc2ccccc2n(-c2ccc(OC(F)(F)F)cc2)c1=O [Compound 5.030]	5 (5=80-100%)
Cn1nnnc1NC(=O)c1cc2ccccc2n(-c2ccccc2)c1=O [Compound 7.001]	1 (1=0-19%)
Cn1nnnc1NC(=O)c1nc2cc(Cl)ccc2n(-c2ccccc2)c1=O [Compound 5.007]	5 (5=80-100%)

System: Alopecurus myosuroides (ALOMY)
Assay: Pre-emergence glasshouse herbicide test
Format: in vivo
Settings: PRE Application, 1000 g/h, after 13 days
In short: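 This pre-emergence glasshouse test used pots of standard soil sown with ALOMY seed and cultivated for one day under controlled conditions of 24/16° C., 14 hours light and 65% humidity. An aqueous spray from an acetone/water (50:50) formulation with 0.5% Tween 20 was applied. After 13 days of further growth with twice-daily watering, plant damage was rated as a percentage.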

SMILES	percentage damage caused to the plant, ALOMY
Cn1nnnc1NC(=O)c1nc2ccccc2n(-c2ccc(Cl)c(Cl)c2)c1=O [Compound 5.035]	3 (3=40-59%)
Cc1cccc(-n2c(=O)c(C(=O)Nc3ncnn3C)nc3ccccc32)n1 [Compound 5.038]	4 (4=60-79%)
CSc1ccc(-n2c(=O)c(C(=O)Nc3nnnn3C)nc3ccccc32)cc1 [Compound 5.020]	1 (1=0-19%)
Cn1nnnc1NC(=O)c1nc2ccccc2n(-c2ccc(OC(F)(F)F)cc2)c1=O [Compound 5.030]	5 (5=80-100%)
Cn1nnnc1NC(=O)c1cc2ccccc2n(-c2ccccc2)c1=O [Compound 7.001]	1 (1=0-19%)
Cn1nnnc1NC(=O)c1nc2cc(Cl)ccc2n(-c2ccccc2)c1=O [Compound 5.007]	2 (2=20-39%)

System: Ipomoea hederacea (IPOHE)
Assay: Pre-emergence glasshouse herbicide test
Format: in vivo
Settings: PRE Application, 1000 g/h, after 13 days

SMILES	percentage damage caused to the plant, IPOHE
Cn1nnnc1NC(=O)c1nc2ccccc2n(-c2ccc(Cl)c(Cl)c2)c1=O [Compound 5.035]	5 (5=80-100%)
Cc1cccc(-n2c(=O)c(C(=O)Nc3ncnn3C)nc3ccccc32)n1 [Compound 5.038]	3 (3=40-59%)
CSc1ccc(-n2c(=O)c(C(=O)Nc3nnnn3C)nc3ccccc32)cc1 [Compound 5.020]	3 (3=40-59%)
Cn1nnnc1NC(=O)c1nc2ccccc2n(-c2ccc(OC(F)(F)F)cc2)c1=O [Compound 5.030]	5 (5=80-100%)
Cn1nnnc1NC(=O)c1cc2ccccc2n(-c2ccccc2)c1=O [Compound 7.001]	1 (1=0-19%)
Cn1nnnc1NC(=O)c1nc2cc(Cl)ccc2n(-c2ccccc2)c1=O [Compound 5.007]	5 (5=80-100%)

System: Setaria faberi (SETFA)
Assay: Pre-emergence glasshouse herbicide test
Format: in vivo
Settings: PRE Application, 1000 g/h, after 13 days

SMILES	percentage damage caused to the plant, SETFA
Cn1nnnc1NC(=O)c1nc2ccccc2n(-c2ccc(Cl)c(Cl)c2)c1=O [Compound 5.035]	5 (5=80-100%)
Cc1cccc(-n2c(=O)c(C(=O)Nc3ncnn3C)nc3ccccc32)n1 [Compound 5.038]	4 (4=60-79%)
CSc1ccc(-n2c(=O)c(C(=O)Nc3nnnn3C)nc3ccccc32)cc1 [Compound 5.020]	1 (1=0-19%)
Cn1nnnc1NC(=O)c1nc2ccccc2n(-c2ccc(OC(F)(F)F)cc2)c1=O [Compound 5.030]	5 (5=80-100%)
Cn1nnnc1NC(=O)c1cc2ccccc2n(-c2ccccc2)c1=O [Compound 7.001]	1 (1=0-19%)
Cn1nnnc1NC(=O)c1nc2cc(Cl)ccc2n(-c2ccccc2)c1=O [Compound 5.007]	5 (5=80-100%)

System: Echinochloa crus-galli (ECHCG)
Assay: Pre-emergence glasshouse herbicide test
Format: in vivo
Settings: PRE Application, 1000 g/h, after 13 days

SMILES	percentage damage caused to the plant, ECHCG
Cn1nnnc1NC(=O)c1nc2ccccc2n(-c2ccc(Cl)c(Cl)c2)c1=O [Compound 5.035]	2 (2=20-39%)
Cc1cccc(-n2c(=O)c(C(=O)Nc3ncnn3C)nc3ccccc32)n1 [Compound 5.038]	1 (1=0-19%)
CSc1ccc(-n2c(=O)c(C(=O)Nc3nnnn3C)nc3ccccc32)cc1 [Compound 5.020]	3 (3=40-59%)
Cn1nnnc1NC(=O)c1nc2ccccc2n(-c2ccc(OC(F)(F)F)cc2)c1=O [Compound 5.030]	5 (5=80-100%)
Cn1nnnc1NC(=O)c1cc2ccccc2n(-c2ccccc2)c1=O [Compound 7.001]	1 (1=0-19%)
Cn1nnnc1NC(=O)c1nc2cc(Cl)ccc2n(-c2ccccc2)c1=O [Compound 5.007]	2 (2=20-39%)

System: Amaranthus retoflexus (AMARE)
Assay: Pre-emergence glasshouse herbicide test
Format: in vivo
Settings: PRE Application, 1000 g/h, after 13 days

SMILES	percentage damage caused to the plant, AMARE
Cn1nnnc1NC(=O)c1nc2ccccc2n(-c2ccc(Cl)c(Cl)c2)c1=O [Compound 5.035]	5 (5=80-100%)
Cc1cccc(-n2c(=O)c(C(=O)Nc3ncnn3C)nc3ccccc32)n1 [Compound 5.038]	5 (5=80-100%)
CSc1ccc(-n2c(=O)c(C(=O)Nc3nnnn3C)nc3ccccc32)cc1 [Compound 5.020]	5 (5=80-100%)
Cn1nnnc1NC(=O)c1nc2ccccc2n(-c2ccc(OC(F)(F)F)cc2)c1=O [Compound 5.030]	5 (5=80-100%)
Cn1nnnc1NC(=O)c1cc2ccccc2n(-c2ccccc2)c1=O [Compound 7.001]	2 (2=20-39%)
Cn1nnnc1NC(=O)c1nc2cc(Cl)ccc2n(-c2ccccc2)c1=O [Compound 5.007]	5 (5=80-100%)

System: Setaria faberi (SETFA)
Assay: Post-emergence glasshouse herbicide test
Format: in vivo
Settings: POST Application, 1000 g/h, after 13 days
In short: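 This post-emergence glasshouse herbicide test used SETFA plants raised in pots of standard soil for 8 days under controlled conditions (24/16° C., 14 hours light, 65% humidity). An aqueous spray made from acetone/water (50:50) with 0.5% Tween 20 was applied. Plants were watered twice daily, and percentage plant damage was assessed 13 days later.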

SMILES	percentage damage caused to the plant, SETFA
Cn1nnnc1NC(=O)c1nc2ccccc2n(-c2ccc(Cl)c(Cl)c2)c1=O [Compound 5.035]	4 (4=60-79%)
Cc1cccc(-n2c(=O)c(C(=O)Nc3ncnn3C)nc3ccccc32)n1 [Compound 5.038]	5 (5=80-100%)
CSc1ccc(-n2c(=O)c(C(=O)Nc3nnnn3C)nc3ccccc32)cc1 [Compound 5.020]	2 (2=20-39%)
Cn1nnnc1NC(=O)c1nc2ccccc2n(-c2ccc(OC(F)(F)F)cc2)c1=O [Compound 5.030]	5 (5=80-100%)
Cn1nnnc1NC(=O)c1cc2ccccc2n(-c2ccccc2)c1=O [Compound 7.001]	1 (1=0-19%)
Cn1nnnc1NC(=O)c1nc2cc(Cl)ccc2n(-c2ccccc2)c1=O [Compound 5.007]	5 (5=80-100%)

System: Solanum nigrum (SOLNI)
Assay: Post-emergence glasshouse herbicide test
Format: in vivo
Settings: POST Application, 1000 g/h, after 13 days
In short: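 This glasshouse post-emergence herbicide test used Solanum nigrum plants sown in standard soil and cultivated for 8 days under controlled conditions (24/16° C. day/night, 14 hours light, 65% humidity). An aqueous spray from an acetone/water (50:50) solution with 0.5% Tween 20 was applied. Plants were watered twice daily, and damage to each plant was assessed as a percentage 13 days later.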

SMILES	percentage damage caused to the plant, SOLNI
Cn1nnnc1NC(=O)c1nc2ccccc2n(-c2ccc(Cl)c(Cl)c2)c1=O [Compound 5.035]	5 (5=80-100%)
Cc1cccc(-n2c(=O)c(C(=O)Nc3ncnn3C)nc3ccccc32)n1 [Compound 5.038]	5 (5=80-100%)
CSc1ccc(-n2c(=O)c(C(=O)Nc3nnnn3C)nc3ccccc32)cc1 [Compound 5.020]	5 (5=80-100%)
Cn1nnnc1NC(=O)c1nc2ccccc2n(-c2ccc(OC(F)(F)F)cc2)c1=O [Compound 5.030]	5 (5=80-100%)
Cn1nnnc1NC(=O)c1cc2ccccc2n(-c2ccccc2)c1=O [Compound 7.001]	4 (4=60-79%)
Cn1nnnc1NC(=O)c1nc2cc(Cl)ccc2n(-c2ccccc2)c1=O [Compound 5.007]	5 (5=80-100%)

System: Alopecurus myosuroides (ALOMY)
Assay: Post-emergence glasshouse herbicide test
Format: in vivo
Settings: POST Application, 1000 g/h, after 13 days
In short: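 In this glasshouse post-emergence test, ALOMY plants were cultivated in standard soil for 8 days under controlled conditions (24/16° C. day/night, 14 hours light, 65% humidity). They were then treated with a spray derived from an acetone/water (50:50) formulation with 0.5% Tween 20, grown on with watering twice daily, and rated for percentage damage after 13 days.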

SMILES	percentage damage caused to the plant, ALOMY
Cn1nnnc1NC(=O)c1nc2ccccc2n(-c2ccc(Cl)c(Cl)c2)c1=O [Compound 5.035]	2 (2=20-39%)
Cc1cccc(-n2c(=O)c(C(=O)Nc3ncnn3C)nc3ccccc32)n1 [Compound 5.038]	5 (5=80-100%)
CSc1ccc(-n2c(=O)c(C(=O)Nc3nnnn3C)nc3ccccc32)cc1 [Compound 5.020]	5 (5=80-100%)
Cn1nnnc1NC(=O)c1nc2ccccc2n(-c2ccc(OC(F)(F)F)cc2)c1=O [Compound 5.030]	5 (5=80-100%)
Cn1nnnc1NC(=O)c1cc2ccccc2n(-c2ccccc2)c1=O [Compound 7.001]	1 (1=0-19%)
Cn1nnnc1NC(=O)c1nc2cc(Cl)ccc2n(-c2ccccc2)c1=O [Compound 5.007]	2 (2=20-39%)

System: Ipomoea hederacea (IPOHE)
Assay: Post-emergence glasshouse herbicide test
Format: in vivo
Settings: POST Application, 1000 g/h, after 13 days

SMILES	percentage damage caused to the plant, IPOHE
Cn1nnnc1NC(=O)c1nc2ccccc2n(-c2ccc(Cl)c(Cl)c2)c1=O [Compound 5.035]	5 (5=80-100%)
Cc1cccc(-n2c(=O)c(C(=O)Nc3ncnn3C)nc3ccccc32)n1 [Compound 5.038]	5 (5=80-100%)
CSc1ccc(-n2c(=O)c(C(=O)Nc3nnnn3C)nc3ccccc32)cc1 [Compound 5.020]	5 (5=80-100%)
Cn1nnnc1NC(=O)c1nc2ccccc2n(-c2ccc(OC(F)(F)F)cc2)c1=O [Compound 5.030]	5 (5=80-100%)
Cn1nnnc1NC(=O)c1cc2ccccc2n(-c2ccccc2)c1=O [Compound 7.001]	2 (2=20-39%)
Cn1nnnc1NC(=O)c1nc2cc(Cl)ccc2n(-c2ccccc2)c1=O [Compound 5.007]	5 (5=80-100%)

System: Echinochloa crus-galli (ECHCG)
Assay: Post-emergence glasshouse herbicide test
Format: in vivo
Settings: POST Application, 1000 g/h, after 13 days

SMILES	percentage damage caused to the plant, ECHCG
Cn1nnnc1NC(=O)c1nc2ccccc2n(-c2ccc(Cl)c(Cl)c2)c1=O [Compound 5.035]	2 (2=20-39%)
Cc1cccc(-n2c(=O)c(C(=O)Nc3ncnn3C)nc3ccccc32)n1 [Compound 5.038]	2 (2=20-39%)
CSc1ccc(-n2c(=O)c(C(=O)Nc3nnnn3C)nc3ccccc32)cc1 [Compound 5.020]	5 (5=80-100%)
Cn1nnnc1NC(=O)c1nc2ccccc2n(-c2ccc(OC(F)(F)F)cc2)c1=O [Compound 5.030]	5 (5=80-100%)
Cn1nnnc1NC(=O)c1cc2ccccc2n(-c2ccccc2)c1=O [Compound 7.001]	2 (2=20-39%)
Cn1nnnc1NC(=O)c1nc2cc(Cl)ccc2n(-c2ccccc2)c1=O [Compound 5.007]	2 (2=20-39%)

System: Amaranthus retoflexus (AMARE)
Assay: Post-emergence glasshouse herbicide test
Format: in vivo
Settings: POST Application, 1000 g/h, after 13 days

SMILES	percentage damage caused to the plant, AMARE
Cn1nnnc1NC(=O)c1nc2ccccc2n(-c2ccc(Cl)c(Cl)c2)c1=O [Compound 5.035]	5 (5=80-100%)
Cc1cccc(-n2c(=O)c(C(=O)Nc3ncnn3C)nc3ccccc32)n1 [Compound 5.038]	5 (5=80-100%)
CSc1ccc(-n2c(=O)c(C(=O)Nc3nnnn3C)nc3ccccc32)cc1 [Compound 5.020]	5 (5=80-100%)
Cn1nnnc1NC(=O)c1nc2ccccc2n(-c2ccc(OC(F)(F)F)cc2)c1=O [Compound 5.030]	5 (5=80-100%)
Cn1nnnc1NC(=O)c1cc2ccccc2n(-c2ccccc2)c1=O [Compound 7.001]	3 (3=40-59%)
Cn1nnnc1NC(=O)c1nc2cc(Cl)ccc2n(-c2ccccc2)c1=O [Compound 5.007]	5 (5=80-100%)

Source: patent US9179678B2, “Substituted [1,2,4]triazoles and substituted tetrazoles as herbicides” (SYNGENTA LIMITED, priority 2012, dated 2015)
